Test [1] has as its system male beagles. The test is described as follows: Pharmacological Test Example 3: drug efficacy test in dogs (plasma glucose level AUC). The test is classed as in vivo. The conditions noted are these: male beagles fasted overnight; oral 1 mg/kg in 0.5% methyl cellulose; compared to control group up to 4 hours after administration. How it is done: (§1) From the cephalic vein of male beagles fasted overnight (8.5-13.7 kg body weight), blood was collected prior to administration, followed by oral administration of the test drug suspended in a 0.5% methyl cellulose solution (1 mg/kg in both of Examples 30 and 31), while a 0.5% methyl cellulose solution was orally administered to the control group. The blood was collected every 0.5 or 1 hour after the administration of the test drug. Plasma was separated from the obtained blood to determine a plasma glucose level using Determina-GL-E (Kyowa Medics).
Percentage reductions in plasma glucose level AUC compared to the control group up to 4 hours after the administration were described below.

The subject of test [2] is male beagles. The test is described as follows: Pharmacological Test Example 2: drug efficacy test in dogs (plasma glucose level AUC). In kind it is in vivo. The conditions noted are these: for Percentage reduction (%) in plasma glucose level AUC: male beagles fasted overnight, oral 1 mg/kg in 0.5% methyl cellulose, compared to control group up to 4 hours after administration. How it is done:
as §1, with “(10.4-13.7” for “(8.5-13.7”, “the compounds of Example A” for “Examples 30”, “Example 18),” for “31),”, “Medics). Percentage reductions in plasma glucose level AUC compared to the control group up to 4 hours after the administration were described below.” for “Medics).”

The target of test [3] is T1, recombinant human liver GK (Homo sapiens, UniProt P35557).
T1 construct: made in house; host or cells: E. coli
T1 sequence (P35557 1-466 isoform P35557-2): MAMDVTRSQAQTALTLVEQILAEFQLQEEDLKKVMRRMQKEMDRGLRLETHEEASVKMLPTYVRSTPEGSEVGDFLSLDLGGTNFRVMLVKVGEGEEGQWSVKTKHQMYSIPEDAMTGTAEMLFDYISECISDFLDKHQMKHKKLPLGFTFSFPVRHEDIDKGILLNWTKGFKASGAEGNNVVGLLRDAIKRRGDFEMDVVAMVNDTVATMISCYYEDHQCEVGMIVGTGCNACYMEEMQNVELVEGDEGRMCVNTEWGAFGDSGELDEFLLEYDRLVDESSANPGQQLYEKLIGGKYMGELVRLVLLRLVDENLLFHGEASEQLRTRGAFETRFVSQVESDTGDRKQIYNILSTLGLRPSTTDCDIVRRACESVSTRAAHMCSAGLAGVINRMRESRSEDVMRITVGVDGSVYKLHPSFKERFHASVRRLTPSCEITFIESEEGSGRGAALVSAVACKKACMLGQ
The test is described as follows: Glucokinase-activating effect (Thio-NADH coupled assay with G6PDH, 2.5 mM glucose). In kind it is biochemical. From the text:
The excellent glucokinase-activating effect of the compounds of the formula (I) may be determined by a method described in literature (for example, Diabetes, Vol. 45, pp. 1671-1677, 1996), or in accordance with it.
The glucokinase activity may be determined not by directly measuring glucose-6-phosphate but by measuring the level of Thio-NADH, which is produced when a reporter enzyme, glucose-6-phosphate dehydrogenase produces phosphogluconolactone from glucose-6-phosphate, and based on the level, the degree of glucokinase activation by the compound tested may be determined
In this assay, used was a recombinant human liver GK, which was expressed by E. coli as a FLAG fusion protein therein and was purified by ANTIFLAG M2 AFFINITY GEL (Sigma).
Using a flat-bottomed 96-well plate, the assay was carried out at 30° C. 69 μl of an assay buffer (25 mM Hepes Buffer/pH=7.2, 2 mM MgCl2, 1 mM ATP, 0.5 mM TNAD, 1 mM dithiothreitol) was put into the plate, and 1 μl of a DMSO solution of the compound or DMSO alone as a control was added thereto. Next, 20 μl of an enzyme mixture (FLAG-GK, 20 U/ml G6PDH) cooled in ice was added to it, and 10 μl of a substrate, 25 mM glucose was added to it, and the reaction was initiated (final glucose concentration=2.5 mM).
After the start of the reaction, the increase in the absorbance at 405 nm was measured for 12 minutes at intervals of 30 seconds, and the increase for the first 5 minutes was used for assessing the compound tested. FLAG-GK was added so that the absorbance increase after 5 minutes in the presence of 1% DMSO could be from 0.04 to 0.06.
The OD level of the DMSO control was set as 100%; and the OD level of the test compound at different concentrations was determined. From the OD level at each concentration, Emax (%) and EC50 (μM) were computed and used as the index of the GK-activating potency of the compound.
The comparative test was conducted to compare the compound of example 18, 31 and 32 in this invention with the compound (A) in the patent document 1. The test method in vitro was similar to pharmacological experiment 1 (glucokinase-activating effect).

Setting [4] is: comparative test in vitro, similar to pharmacological experiment 1, read-out: GK activity EC50.

SMILES strings stand for the structures. Where two headings read alike, the source gives them in different places.

Consider `Cc1cnc(Nc2ncnc3ccc(Oc4ncccc4Cl)cc23)cn1` [Compound A], for which the “Percentage reduction (%) in plasma glucose level AUC” value (“Percentage reduction (%)” for short) in the test on male beagles [1] and in the test on male beagles [2] was −1% each time. In the test with male beagles [2] (in vivo tests in dogs, summary statement), the “drug efficacy in the dogs” value is “no drug efficacy”.

On to `CNCCOc1cnc(Oc2ccc3ncnc(Nc4cnc(C)cn4)c3c2)c(Cl)c1.Cl` [Example 32, 6-({3-chloro-5-[2-(methylamino)ethoxy]pyridin-2-yl}oxy)-N-(5-methylpyrazin-2-yl)quinazoline-4-amine hydrochloride], for which the EC50 in test [3] (setting [4]) is 40 nM. Besides, the “Percentage reduction (%)” value with male beagles [1] stood at 17.5%.

For the molecule `CCNCCOc1cnc(Oc2ccc3ncnc(Nc4ccn(C)n4)c3c2)c(Cl)c1.Cl` [Example 18, 6-({3-chloro-5-[2-(ethylamino)ethoxy]pyridin-2-yl}oxy)-N-(1-methyl-1H-pyrazol-3-yl)quinazoline-4-amine hydrochloride], the EC50 in test [3] (setting [4]) came out at 30 nM. Also, in the test on male beagles [2], the “Percentage reduction (%)” value worked out at 26%.

As to `CC(C)NCCOc1ccc(Oc2ccc3ncnc(Nc4ccn(C)n4)c3c2)nc1` [Example 5, 6-({5-[2-(isopropylamino)ethoxy]pyridin-2-yl}oxy)-N-(1-methyl-1H-pyrazol-3-yl)quinazoline-4-amine], the EC50 in test [3] (final glucose concentration 2.5 mM, 30° C., read-out: EC50) was 260 nM.

Turning to `Cc1cnc(Nc2ncnc3ccc(Oc4ccc(OCCN(C)C)cn4)cc23)cn1` [Example 31, 6-({5-[2-(dimethylamino)ethoxy]pyridin-2-yl}oxy)-N-(5-methylpyrazin-2-yl)quinazoline-4-amine], the EC50 in test [3] (setting [4]) amounted to 440 nM. Also, in the test on male beagles [1], the “Percentage reduction (%)” value is on record as 7.9%.

The EC50 is the midpoint of the concentration-response curve.

The record behind these values is patent US8232284B2, “Heteroaryloxy quinazoline derivative” (MSD K. K., priority 2007, dated 2012).
